Laboratory results reported in ChEMBL document CHEMBL1201862, “PubChem BioAssay data set” (2004).
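Five compound concentrations were applied to cells in 96-well plates for 48 hours; endpoints were derived by simple linear interpolation of the resulting dose-response curve. GI50 marks 50% less growth.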 Active and inactive are the calls of the source. Cut-off read from the data, not from the text of the source: active = GI50 up to about 1.1 µM and inactive = higher.

What was measured:
Assay in all cases: NCI-60 cell line screen, 48 h
[1] = tested on: MCF7
[2] = tested on: MOLT-4
[3] = tested on: UO-31
[4] = tested on: SF-295
[5] = tested on: NCI-H460
[6] = tested on: OVCAR-4
[7] = tested on: SNB-19
[8] = tested on: M14
[9] = tested on: Hs-578T
[10] = tested on: A549
[11] = tested on: CCRF-CEM
[12] = tested on: HCT-15
[13] = tested on: HCT-116
[14] = tested on: SF-268
[15] = tested on: SW-620
[16] = tested on: HOP-92
[17] = tested on: SK-MEL-28
[18] = tested on: K562
[19] = tested on: SK-MEL-5
[20] = tested on: ACHN

SMILES | GI50 [1] | GI50 [2] | GI50 [3] | GI50 [4] | GI50 [5] | GI50 [6] | GI50 [7] | GI50 [8] | GI50 [9] | GI50 [10] | GI50 [11] | GI50 [12] | GI50 [13] | GI50 [14] | GI50 [15] | GI50 [16] | GI50 [17] | GI50 [18] | GI50 [19] | GI50 [20]
S=C(NCc1ccccc1)N/N=C/c1ccccn1 | 0.834 µM (active) | 0.0612 µM (active) | 1.25 µM (inactive) | 1.86 µM (inactive) | 2.04 µM (inactive) | 3.01 µM (inactive) | 7.93 µM (inactive) | 0.5 µM (active) | 14.8 µM (inactive) | 4.29 µM (inactive) | < 0.0409 µM (active) | 1.26 µM | 0.34 µM (active) | 1.42 µM (inactive) | 1.16 µM (inactive) | 2.21 µM (inactive) | 5.62 µM (inactive) | 0.0815 µM (active) | 3.52 µM (inactive) | 1.27 µM (inactive)
COc1cc(/C=C/C=C2\CCC/C(=C\C=C\c3ccc(O)c(OC)c3)C2=O)ccc1O | 5.24 µM (inactive) | 1.01 µM (active) | 12 µM (inactive) | 4.74 µM (inactive) | 13.8 µM (inactive) | 6.27 µM (inactive) | 31.7 µM (inactive) | 18.2 µM (inactive) | 19.5 µM (inactive) | 4.85 µM (inactive) | 0.991 µM (active) | 13.6 µM | 10.5 µM (inactive) | 5.53 µM (inactive) | 6.84 µM (inactive) | 12 µM (inactive) | 12.6 µM (inactive) | 3.06 µM (inactive) | 10.3 µM (inactive) | 4.08 µM (inactive)
Nc1ccc2nc(-c3ccccn3)c(-c3ccccn3)nc2c1 | > 100 µM (inactive) | > 100 µM (inactive) | > 100 µM (inactive) | > 100 µM (inactive) | > 100 µM (inactive) | > 100 µM (inactive) | > 100 µM (inactive) | > 100 µM (inactive) | > 100 µM (inactive) | > 100 µM (inactive) | > 100 µM (inactive) | > 100 µM | > 100 µM (inactive) | > 100 µM (inactive) | > 100 µM (inactive) | > 100 µM (inactive) | > 100 µM (inactive) | > 100 µM (inactive) | > 100 µM (inactive) | > 100 µM (inactive)
COC(=O)/C=C1\C(=O)Nc2ccc(Br)cc21 | 1.46 µM (inactive) | 0.962 µM (active) | 2.19 µM (inactive) | 2.3 µM (inactive) | 2.25 µM (inactive) | 2.23 µM (inactive) | 3.24 µM (inactive) | 2.24 µM (inactive) | 4.04 µM (inactive) | 3.15 µM (inactive) | 0.296 µM (active) | 1.16 µM | 1.36 µM (inactive) | 3.49 µM (inactive) | 1.2 µM (inactive) | 1.88 µM (inactive) | 2.68 µM (inactive) | 1.77 µM (inactive) | 1.6 µM (inactive) | 1.71 µM (inactive)
Cc1ccc2c(c1)C(=O)C(Cc1ccccc1C(=O)O)C2 (configuration not stated) | > 100 µM (inactive) | > 100 µM (inactive) | > 100 µM (inactive) | > 100 µM (inactive) | > 100 µM (inactive) | > 100 µM (inactive) | > 100 µM (inactive) | > 100 µM (inactive) | > 100 µM (inactive) | > 100 µM (inactive) | > 100 µM (inactive) | > 100 µM | > 100 µM (inactive) | > 100 µM (inactive) | > 100 µM (inactive) | > 100 µM (inactive) | > 100 µM (inactive) | > 100 µM (inactive) | > 100 µM (inactive) | > 100 µM (inactive)
O=C(/C=C/c1ccccc1)Oc1ccc(C(=O)/C=C/c2ccccc2)cc1 | 6.08 µM (inactive) | 11.2 µM (inactive) | 10.4 µM (inactive) | 12.9 µM (inactive) | 8.87 µM (inactive) | 25.8 µM (inactive) | 15.1 µM (inactive) | 14.1 µM (inactive) | 23.3 µM (inactive) | 25.1 µM (inactive) | 3.3 µM (inactive) | 4.29 µM | 9.64 µM (inactive) | 12.3 µM (inactive) | 8.75 µM (inactive) | 17.1 µM (inactive) | 12.4 µM (inactive) | 3.4 µM (inactive) | 16.9 µM (inactive) | 11.9 µM (inactive)
COc1oc(C2C/C(=C/C(C)=C/C(C)=C/C(C)=C/c3ccc([N+](=O)[O-])cc3)CO2)c(C)c(=O)c1C (configuration not stated) | 1.59 µM (inactive) | 1.67 µM (inactive) | 5.2 µM (inactive) | 2.47 µM (inactive) | 1.26 µM (inactive) | 3.5 µM (inactive) | 15.9 µM (inactive) | 6.03 µM (inactive) | 5.89 µM (inactive) | 1.74 µM (inactive) | 2.63 µM (inactive) | 5.64 µM | < 0.01 µM (active) | 10.3 µM (inactive) | 9.1 µM (inactive) | 6.95 µM (inactive) | 6.1 µM (inactive) | < 0.01 µM (active) | < 0.01 µM (active) | 1.12 µM (active)
Cc1ccc2c(c1C)C(=O)/C(=C/c1cccc(C)c1C(=O)O)C2 | 25.9 µM (inactive) | 53.2 µM (inactive) | 2.2 µM (inactive) | > 100 µM (inactive) | 65 µM (inactive) | > 79.6 µM (inactive) | > 100 µM (inactive) | 63.2 µM (inactive) | > 86.1 µM (inactive) | 79.6 µM (inactive) | 50.7 µM (inactive) | 51.3 µM | 48.4 µM (inactive) | > 91.4 µM (inactive) |  | 19.2 µM (inactive) | 79.3 µM (inactive) | 72.8 µM (inactive) | 38.9 µM (inactive) | 72.3 µM (inactive)
N#Cc1c(N2CCCC2)ncn(-c2ccccc2)c1=S | > 100 µM (inactive) | > 100 µM (inactive) | > 100 µM (inactive) | > 100 µM (inactive) | > 100 µM (inactive) | > 100 µM (inactive) | > 100 µM (inactive) | > 100 µM (inactive) | > 100 µM (inactive) | > 100 µM (inactive) | > 100 µM (inactive) | > 100 µM | > 100 µM (inactive) | > 100 µM (inactive) | > 100 µM (inactive) | > 100 µM (inactive) | > 100 µM (inactive) | > 100 µM (inactive) | > 100 µM (inactive) | > 100 µM (inactive)
Oc1c(CN2CCN(c3ccccc3)CC2)cc(Br)c2cccnc12 | 0.966 µM (active) | 0.349 µM (active) | 0.393 µM (active) | 1.21 µM (inactive) | 0.244 µM (active) | 1.7 µM (inactive) | 1.69 µM (inactive) | 1.14 µM (inactive) | 3.33 µM (inactive) | 1.43 µM (inactive) | 0.271 µM (active) | 0.135 µM | 0.448 µM (active) | 0.893 µM (active) | 1.4 µM (inactive) | 2.2 µM (inactive) | 3.97 µM (inactive) |  | 0.805 µM (active) | 0.621 µM (active)
COc1ccc(C(=O)C(CC2C(=O)CC(C)(C)C(C(=O)C(=O)Nc3c(C)cccc3C)C2=O)c2ccc(OC)cc2)cc1 (configuration not stated) | > 100 µM (inactive) | > 100 µM (inactive) | 70.1 µM (inactive) | > 100 µM (inactive) | > 100 µM (inactive) | > 100 µM (inactive) | > 100 µM (inactive) | > 100 µM (inactive) | > 100 µM (inactive) | > 100 µM (inactive) | > 100 µM (inactive) | > 100 µM | > 100 µM (inactive) | > 100 µM (inactive) | > 100 µM (inactive) | > 100 µM (inactive) | > 100 µM (inactive) |  | > 100 µM (inactive) | > 100 µM (inactive)
